The target of series [1] is casein kinase 1 epsilon (CK1 epsilon) (Homo sapiens (Human), UniProt P49674). Nature of the series: Test A: inhibitory activity on CK1 epsilon, casein phosphorylation assay on ATP-33P filter plate. Format: biochemical. To be noted: IC50 values or IC50 ranges (result of several experiments), ATP 10 μM final. As to the method:
The capacity of the compounds of the invention to inhibit the phosphorylation of casein by casein kinase 1 epsilon and/or delta may be evaluated according to the procedures described in document US 2005/0 131 012.
Test A: Inhibitory Activity on CK1 Epsilon Measured by Assay on an ATP-^33P Filter Plate
The effect of the compounds on inhibition of the phosphorylation of casein by the enzyme casein kinase 1 epsilon (CK1 epsilon) is measured, using a casein assay via filtration of ATP-^33P in vitro.
Casein kinase 1 epsilon (0.58 mg/ml) is obtained via fermentation and purification processes performed according to methods that are well known to those skilled in the art, or may also be obtained from Invitrogen Corporation™ (human CK1 epsilon).
The compounds are tested at five different concentrations so as to generate IC50 values, i.e. the concentration at which a compound is capable of inhibiting the enzymatic activity by 50%, or alternatively the percentage of inhibition at a concentration of 10 micromolar.
“U”-bottomed Falcon plates are prepared by placing 5 μL of solutions of the compounds according to the invention at concentrations of 10, 1, 0.1, 0.01 or 0.001 μM in different wells. The solutions of the compounds according to the invention at these various concentrations are prepared by diluting in a test buffer (Tris 50 mM pH 7.5, MgCl2 […], DTT 2 mM and EGTA 1 mM) a stock solution in DMSO at a concentration of 10 mM. Next, 5 μL of dephosphorylated casein are added to a final concentration of 0.2 μg/μL, 20 μL of CK1 epsilon to a final concentration of 3 ng/μL, and 20 μL of ATP-^33P to a final concentration of 0.02 μCi/μL mixed with cold ATP (10 μM final—approximately 2×10^6 CPM per well). The final total test volume per well is equal to 50 μL.
The “U”-bottomed Falcon® test plate mentioned above is vortexed, and then incubated at room temperature for 2 hours. After 2 hours the reaction is stopped by adding an ice-cold solution of 65 μL of cold ATP (2 mM) prepared in test buffer.
100 μL of the reaction mixture are then transferred from the “U”-bottomed Falcon® plate into Millipore® MAPH filter plates, preimpregnated with 25 μL of ice-cold 100% TCA.
The Millipore MAPH filter plates are agitated gently and are left to stand at room temperature for at least 30 minutes to precipitate the proteins.
After 30 minutes, the filter plates are sequentially washed and filtered with 2×150 μL of 20% TCA, 2×150 μL of 10% TCA and 2×150 μL of 5% TCA (6 washes in total per plate/900 μL per well).
The plates are left to dry overnight at room temperature. Next, 40 μL of Microscint-20 Packard® scintillation liquid are added per well and the plates are closed in a leaktight manner. The radiation emitted by each well is then measured for 2 minutes in a TopCount NXT Packard® scintillation counter, in which the values of CPM/well are measured.
The percentage inhibition of the capacity of the enzyme to phosphorylate the substrate (casein) is determined for each concentration of test compound. These inhibition data expressed as percentages are used to calculate the IC50 value for each compound compared with the controls.
The kinetic studies determined the KM value for ATP as being 21 μM in this test system.
Table 2 below gives the IC50 values or the IC50 inhibition ranges (result of several experiments) for the phosphorylation of Casein Kinase 1 Epsilon for a number of compounds according to the invention.

Sequence of casein kinase 1 epsilon (CK1 epsilon) (P49674 whole entry): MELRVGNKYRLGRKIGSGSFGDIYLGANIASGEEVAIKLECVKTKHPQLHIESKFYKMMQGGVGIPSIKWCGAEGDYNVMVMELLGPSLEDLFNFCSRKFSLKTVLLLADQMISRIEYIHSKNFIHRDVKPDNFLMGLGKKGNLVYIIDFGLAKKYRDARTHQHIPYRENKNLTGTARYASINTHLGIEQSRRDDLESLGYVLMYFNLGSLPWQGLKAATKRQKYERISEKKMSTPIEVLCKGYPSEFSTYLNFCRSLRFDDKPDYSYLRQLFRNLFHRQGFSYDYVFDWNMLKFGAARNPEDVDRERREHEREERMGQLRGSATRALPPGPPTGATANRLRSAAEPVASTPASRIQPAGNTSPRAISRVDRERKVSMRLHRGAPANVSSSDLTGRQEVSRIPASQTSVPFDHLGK

Turning to `NC(=O)c1c(-c2cccc(C(F)(F)F)c2)c(Cl)n2c1CN(C(=O)NC1CCOCC1)CC2` [Compound 96, 6-chloro-N^2-(tetrahydro-2H-pyran-4-yl)-7-[3-(trifluoromethyl)phenyl]-3,4-dihydropyrrolo[1,2-a]pyrazine-2,8(1H)-dicarboxamide], the melting point fell in the range of 220 to 222 °C. The compound further registered an IC50 in series [1] of 19 nM.

For the compound `N#Cc1cccc(-c2c(C(N)=O)c3n(c2Cl)CCN(C(=O)NC2CCOCC2)C3)c1` [Compound 95, 6-chloro-7-(3-cyanophenyl)-N^2-(tetrahydro-2H-pyran-4-yl)-3,4-dihydropyrrolo[1,2-a]pyrazine-2,8(1H)-dicarboxamide], the melting point was 236 to 238 °C. This compound registered an IC50 in series [1] of 6 nM. For `NC(=O)c1c(-c2cccc(F)c2)c(Cl)n2c1CN(C(=O)NCC(F)(F)F)CC2` [Compound 77, 6-chloro-7-(3-fluorophenyl)-N^2-(2,2,2-trifluoroethyl)-3,4-dihydropyrrolo[1,2-a]pyrazine-2,8(1H)-dicarboxamide], in that order: 208 to 213 °C and 2 to 8 nM. `C[C@H](NC(=O)N1CCn2c(Cl)c(-c3cccc(F)c3)c(C(N)=O)c2C1)C(F)(F)F` [Compound 78, 6-chloro-7-(3-fluorophenyl)-N^2-[(2S)-1,1,1-trifluoropropan-2-yl]-3,4-dihydropyrrolo[1,2-a]pyrazine-2,8(1H)-dicarboxamide] showed a melting point of 190 to 193 °C. In series [1], this compound had an IC50 of 3 nM.

Compound `CC1(CNC(=O)N2CCn3c(Cl)c(-c4cccc(F)c4)c(C(N)=O)c3C2)COC1` [Compound 91, 6-chloro-7-(3-fluorophenyl)-N^2-(3-methyl-oxetan-3-ylmethyl)-3,4-dihydropyrrolo[1,2-a]pyrazine-2,8(1H)-dicarboxamide] registered a melting point of 249 to 253 °C. Further, in series [1], it took 4 nM to reach half-maximal inhibition (IC50). `COc1ccc(-c2c(C(N)=O)c3n(c2C2CC2)CCN(C(=O)NC24CC5CC(CC2C5)C4)C3)cc1` [Compound 53, 6-cyclo-propyl-N^2-(hexahydro-2,5-methanopentalen-3a(1H)-yl)-7-(4-methoxyphenyl)-3,4-dihydropyrrolo[1,2-a]pyrazine-2,8(1H)-dicarboxamide] returned a melting point of 216 to 219 °C. Half-maximal inhibition in series [1] (IC50) required 7 nM.

Turning to `CC(C)(C)NC(=O)N1CCn2c(c(C(N)=O)c(-c3ccc(OCc4ccccc4)cc3)c2C2CC2)C1` [Compound 40, 7-[4-(benzyloxy)phenyl]-N^2-tert-butyl-6-cyclo-propyl-3,4-dihydropyrrolo[1,2-a]pyrazine-2,8(1H)-dicarboxamide], the melting point lay within 203 to 206 °C. In series [1], this compound yielded an IC50 of 38 nM. `CC(C)(C)NC(=O)N1CCn2c(C#N)c(-c3cccc(F)c3)c(C(N)=O)c2C1` [Compound 105, 6-cyano-7-(3-fluorophenyl)-N^2-(tert-butyl)-3,4-dihydropyrrolo[1,2-a]pyrazine-2,8(1H)-dicarboxamide]: the melting point is greater than 217 °C. Besides, in series [1], the IC50 worked out at 1 nM. Compound `CC(C)(C)NC(=O)N1CCn2c(c(C(N)=O)c(-c3ccc(F)cc3)c2C2CC2)C1` [Compound 47, N^2-tert-butyl-6-cyclo-propyl-7-(4-fluorophenyl)-3,4-dihydropyrrolo[1,2-a]pyrazine-2,8(1H)-dicarboxamide] displayed a melting point of 220 to 223 °C. For the same compound, in series [1], the IC50 is 45 to 146 nM. The compound `CC(C)(C)NC(=O)N1CCn2c(Cl)c(-c3cccc(C#N)c3)c(C(N)=O)c2C1` [Compound 65, N^2-tert-butyl-6-chloro-7-(3-cyanophenyl)-3,4-dihydropyrrolo[1,2-a]pyrazine-2,8(1H)-dicarboxamide] registered a melting point of 192 to 195 °C. In addition, in series [1], the IC50 was in the range of 1 to 2 nM. For `CC(C)(C)NC(=O)N1CCn2c(c(C(N)=O)c(-c3cccc(OCc4ccccc4)c3)c2C2CC2)C1` [Compound 34, 7-[3-(benzyloxy)phenyl]-N^2-tert-butyl-6-cyclo-propyl-3,4-dihydropyrrolo[1,2-a]pyrazine-2,8(1H)-dicarboxamide], in that order: 156 to 158 °C and 315 nM. As for `NC(=O)c1c(-c2cccc(F)c2)c(Cl)n2c1CN(C(=O)NCC1(CO)CC1)CC2` [Compound 75, 6-chloro-7-(3-fluorophenyl)-N^2-{[1-(hydroxymethyl)cyclo-propyl]methyl}-3,4-dihydropyrrolo[1,2-a]pyrazine-2,8(1H)-dicarboxamide], the melting point is 204 to 206 °C. Moreover, the IC50 in series [1] is 4 to 5 nM. For `COc1ccc(-c2c(C(N)=O)c3n(c2Cl)CCN(C(=O)NC(C)(C)C)C3)cc1` [Compound 64, N^2-tert-butyl-6-chloro-7-(4-methoxyphenyl)-3,4-dihydropyrrolo[1,2-a]pyrazine-2,8(1H)-dicarboxamide], in that order: 168 to 170 °C and 1 to 5 nM. As for `COc1ccc(-c2c(C(N)=O)c3n(c2C2CC2)CCN(C(=O)NC2CCOCC2)C3)cc1` [Compound 56, 6-cyclo-propyl-7-(4-methoxyphenyl)-N^2-(tetrahydro-2H-pyran-4-yl)-3,4-dihydropyrrolo[1,2-a]pyrazine-2,8(1H)-dicarboxamide], the melting point was in the range of 176 to 177 °C. The same compound registered an IC50 in series [1] of 26 to 38 nM.

In turn, `CC(C)NC(=O)N1CCn2c(c(C(N)=O)c(-c3ccccc3)c2C2CC2)C1` [Compound 7, 6-cyclo-propyl-7-phenyl-N^2-(iso-propyl)-3,4-dihydropyrrolo[1,2-a]pyrazine-2,8(1H)-dicarboxamide] gave a 50% inhibitory concentration (IC50) in series [1] of 42 nM. For the compound `COc1ccc(-c2c(C(N)=O)c3n(c2C2CC2)CCN(C(=O)NC(C)C)C3)cc1` [Compound 8, 6-cyclo-propyl-7-(4-methoxyphenyl)-N^2-(iso-propyl)-3,4-dihydropyrrolo[1,2-a]pyrazine-2,8(1H)-dicarboxamide], the IC50 in series [1] fell in the range of 221 to 273 nM. `NC(=O)c1c(-c2ccccc2)c(Cl)n2c1CN(C(=O)NC1CC3CCC1C3)CC2` (stereo not drawn) [Compound 88, N^2-(bicyclo[2.2.1]hept-2-yl)-6-chloro-7-phenyl-3,4-dihydropyrrolo[1,2-a]pyrazine-2,8(1H)-dicarboxamide] displayed a half-inhibitory concentration (IC50) in series [1] of 3 to 5 nM. In series [1], `COc1cccc(-c2c(C(N)=O)c3n(c2Cl)CCN(C(=O)NC(C)(C)C)C3)c1` [Compound 62, tert-butyl-6-chloro-7-(3-methoxyphenyl)-3,4-dihydropyrrolo[1,2-a]pyrazine-2,8(1H)-dicarboxamide] had an IC50 of 1 to 4 nM.

As to `CC(C)(C)NC(=O)N1CCn2c(c(C(N)=O)c(-c3cccc(F)c3)c2C2CC2)C1` [Compound 46, N^2-tert-butyl-6-cyclo-propyl-7-(3-fluorophenyl)-3,4-dihydropyrrolo[1,2-a]pyrazine-2,8(1H)-dicarboxamide], the IC50 in series [1] was in the range of 5 to 11 nM. The same measure, in the same setting: under `CCCCOc1ccc(-c2c(C(N)=O)c3n(c2C2CC2)CCN(C(=O)NC(C)(C)C)C3)cc1` [Compound 38, 7-(4-butoxyphenyl)-N^2-tert-butyl-6-cyclo-propyl-3,4-dihydropyrrolo[1,2-a]pyrazine-2,8(1H)-dicarboxamide] stands 152 nM; under `COc1cccc(-c2c(C(N)=O)c3n(c2C2CC2)CCN(C(=O)NC(C)(C)C)C3)c1` [Compound 32, N^2-tert-butyl-6-cyclo-propyl-7-(3-methoxyphenyl)-3,4-dihydropyrrolo[1,2-a]pyrazine-2,8(1H)-dicarboxamide], 1 to 7 nM; under `CN(C)C(=O)c1cccc(-c2c(C(N)=O)c3n(c2C2CC2)CCN(C(=O)NC(C)(C)C)C3)c1` [Compound 17, N^2-tert-butyl-6-cyclo-propyl-7-[3-(dimethylcarbamoyl)phenyl]-3,4-dihydropyrrolo[1,2-a]pyrazine-2,8(1H)-dicarboxamide], 958 nM.

The record behind these values is patent US9233965B2, “3,4-dihydropyrrolo[1,2-A]pyrazine-2,8(1H)-dicarboxamide derivatives, preparation thereof and therapeutic use thereof for diseases involving casein kinase 1 epsilon and/or casein kinase 1 delta” (SANOFI, priority 2010, dated 2016).
